Experimental data published in patent US7326700B2, “Cyclohexenyl phenyl carboxamides tocolytic oxytocin receptor antagonists” (Wyeth, priority 2001, dated 2008).

Tests used:
[1] = target: T1, human vasopressin V2 receptor subtype (Homo sapiens, UniProt P30518); test: Vasopressin binding in CHO cell membranes expressing human vasopressin V2 subtype receptors ([3H]arginine vasopressin radioligand binding); details: for IC50: value in parentheses
T1 construct: host or cells: CHO cells, stably transfected (pZeoSV vector)
Excerpt: Chinese Hamster Ovary (CHO) cells stably transfected with the human V2 subtype receptors were obtained from M. Thibonnier, Case Western Reserve University School of Medicine, Cleveland, Ohio.
CHO cells transfected with the human vasopressin V2 subtype receptors obtained from M. Thibonnier (pZeoSV vector) are allowed to grow to confluency (approx. >90%) in T-150 flasks under sterile conditions, in a cell culture medium consisting of F-12 Nutrient Mixture (HAM) with L-glutamine (Gibco Cat. #11765-054) containing 15 mM HEPES (Gibco Cat. #15630-080), 1% antibiotic/antimycotic (add 5 mL 100×, Gibco Cat. #15240-062 per 500 mL F-12), 250 μg/mL Zeocin (add 1.25 mL of 100 mg/mL Invitrogen R-250-01 per 500 mL F-12) and 10% Fetal Bovine Serum (Qualified, heat inactivated, Gibco Cat. #16140-063). The medium is removed by aspiration and the cells washed with 10 mL of Hank's Balanced Salt solution (Gibco Cat. #14175-095). The salt solution is removed by aspiration and the cells trypsinized with 5 mL of trypsin-EDTA (0.05% trypsin, 0.53 mM EDTA-4Na, Gibco Cat. #25300-070) for 1 min. The trypsin is removed by aspiration and the cells dislodged by tapping. Cell Culture medium (e.g. 30 mL for 1:30 split) is immediately added and mixed well to inactivate trypsin. 1 mL of detached cells is added to new culture flasks containing fresh Cell Culture medium (e.g. into 25 mL per T-150 flask), and mixed gently. The cells are incubated at 37° C. in 5% CO2. The medium is changed at 3 to 4 day interval (or as appropriate). The cells grow to confluency (approx. >75%-95%) within 7-8 days. All steps are done under sterile conditions.
The cells are washed twice gently with Hank's Balanced Salt solution (e.g. use 10 mL per T-150 flask). The excess solution is removed and the cells bathed for 15-30 min. in an enzyme-free Cell Dissociation Buffer (e.g. use 8 mL Hank's Based, Gibco Cat. #13150-016 per T-150 flask) until cells are loosened. The contents are transferred to centrifuge tubes (50 mL) kept in an ice bath. All subsequent steps are done at 4° C. The tubes are centrifuged at 300×g for 15 min (1380 rpm on SORVAL, Model RT6000D, using the rotor for 50 mL tubes). The supernatant is discarded and the cells suspended in homogeneizing buffer(10 mM Tris-HCl containing 0.25 M sucrose and 1 mM EDTA, pH 7.4) ensuring that the volume of the buffer is about ten times the volume of the cell pellet. The cells are pooled into a centrifuge tube (50 mL) and homogenized with Polytron at setting 6 for 10 sec. The homogenate is transferred into a Potter-Elvjehm homogeneizer and homogenized with 3 strokes. The homogenate is centrifuged at 1500×g for 60 min at 4° C. (3100 rpm using SORVAL, model RT6000D, using the rotor for 50 mL tubes). The pellet is discarded. The supernatant is centrifuged at 100,000×g for 60 min. at 4° C. (Beckman L8-80M ultracentrifuge; spin at 37,500 rpm with rotor type 70 Ti for 50 mL tubes; 38,000 rpm with type 80 Ti for 15 mL tubes; or 35,800 rpm with rotor type 45Ti). The supernantant is discarded and the pellet suspended in 3 to 4 mL of Tris buffer (50 mM TRIS-HCl, pH 7.4). The protein content is estimated by the Bradford or Lowry method. The volume of the membrane suspension is adjusted with the membrane buffer (50 mM Tris-HCl containing 0.1% BSA and 0.1 mM PMSF) to give 3.0 mg/mL (or as appropriate) of protein. The membranes are aliquoted and stored at −70° C.
In wells of a 96-well format microtiter plate, is added 90, 110 or 130 μL (to make up a final volume of 200 μL) of assay buffer containing 50 mM of Tris-HCl (pH 7.4), […], 1 mg % aprotinin, 1 mg % leupeptin, 2 mg % 1,10-phenanthroline, 10 mg % trypsin inhibitor, and 0.1 mM PMSF. The inhibitors are added on the day of the experiment. The components are mixed at room temperature, and then kept in ice bath following adjustment of the pH to 7.4. […]

Molecule | IC50 [1] [nM] | melting point [°C] | V2 % inhibition @ 100 nM ([1]; 100 nM) [%] | other results
COc1cc(C2=CCCCC2)c(Cl)cc1C(=O)N1Cc2ccc(C(=O)N3CCC[C@H]3CN3CCCC3)n2Cc2ccccc21 [Example 1, 4-Chloro-5-cyclohex-1-en-1-yl-2-[(3-{[(2S)-2-(pyrrolidin-1-ylmethyl)pyrrolidin-1-yl]carbonyl}-5H-pyrrolo [2,1-c][1,4]benzodiazepin-10(11H)-yl)carbonyl]phenyl methyl ether] | > 3000 | 109 to 121 | – | –
CC1=C(c2ccc(C(=O)N3Cc4ccc(C(=O)N5CCN(C)CC5)n4Cc4ccccc43)cc2C)CCC[C@H]1O [Example 11, [4-((3R)-3-Hydroxy-2-methyl-cyclohex-1-en-1-yl)-3-methyl-phenyl]-[3-(4-methyl-piperazine-1-carbonyl)-10,11-dihydro-5H-pyrrolo [2,1-c][1,4]benzodiazepin-10-yl]-methanone] | – | 102 to 153 | – | inhibition at 0.1 µM ([1]; 100 nM): 14%
{10-[4-(1-Cyclohexen-1-yl)-3-methylbenzoyl]-10,11-dihydro-5H-pyrrolo[2,1-c][1,4]benzodiazepin-3-yl}(4-methyl-piperazin-1-yl)methanone [Example 12] | > 1000 | – | – | –

Continued, in another order:

IC50 [1] [nM] | melting point [°C] | V2 % inhibition @ 100 nM ([1]; 100 nM) [%] | Molecule | other results
– | – | 10 | Cc1cc(C(=O)N2Cc3ccc(C(=O)N4CCN(C(C)C)CC4)n3Cc3ccccc32)ccc1C1=CCCCC1 [Example 25, {10-[4-(1-Cyclohex-1-en-1-yl)-3-methylbenzoyl]-1 0,11-dihydro-5H-pyrrolo[2,1-c][1,4]benzodiazepin-3-yl}(4-isopropyl-1-piperazinyl)methanone] | –
– | – | 9 | Cc1cc(C(=O)N2Cc3ccc(C(=O)N4CCC[C@H]4CN4CCCC4)n3Cc3ccccc32)ccc1C1=CCCCC1 [Example 26, {10-[4-(1-Cyclohex-1-en-1-yl)-3-methylbenzoyl]-10,11-dihydro-5H-pyrrolo[2,1-c][1,4]benzodiazepin-3-yl}[(2S)-2-(1-pyrrolidinylmethyl)pyrrolidinyl]methanone] | –
– | – | 10 | Cc1cc(C(=O)N2Cc3ccc(C(=O)N4CC[C@@H](N(C)C)C4)n3Cc3ccccc32)ccc1C1=CCCCC1 [Example 27, {10-[4-(1-Cyclohex-1-en-1-yl)-3-methylbenzoyl]-10,11-dihydro-5H-pyrrolo[2,1-c][1,4]benzodiazepin-3-yl}[(3R)-3-(dimethylamino)pyrrolidinyl]methanone] | –
